Measured values published in patent US20240158446A1, “CYCLIC COMPOUND HAVING SELECTIVE INHIBITORY ACTION ON KRAS OVER HRAS AND NRAS” (CHUGAI SEIYAKU KABUSHIKI KAISHA, priority 2021, published 2024).
Where two headings read alike, the source gives them in different places. *1 amine or outer side, *2 acyl side, *3 side chain or, on linkers, in order; H or OH if unused. Where a SMILES comes first, the peptide text is derived from it. Bridges are numbered along the chain shown (N, C = ends). [ ]: non-standard residue; d: D form. The star is where a group is joined. hPhe(3-Cl-4-CF3) = N[C@@H](CCc1ccc(C(F)(F)F)c(Cl)c1)C(=O)O; NPrPhe(4-CF3) = CCCN[C@@H](Cc1ccc(C(F)(F)F)cc1)C(=O)O; NMeGly(cPent) = CN[C@H](C(=O)O)C1CCCC1; NMeD = CN[C@@H](CC(=O)O)C(=O)O; X1 = O=C(CN(CC(F)F)[*:1])[*:2]; NMeL = CN[C@@H](CC(C)C)C(=O)O; Morpholide = C1CN(*)CCO1; Ac5c = NC1(C(=O)O)CCCC1; Ac4c = NC1(C(=O)O)CCC1; NEtG = CCNCC(=O)O; Sar = CNCC(=O)O

Key:
[1] = system: human lung cancer strain NCI-H441;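 note: cell proliferation inhibition after four days measured by CellTiter-Glo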
[2] = molecular target: GDP-bound NRAS wild-type protein (Homo sapiens, UniProt P01111); test: Binding to NRAS by surface plasmon resonance (SPR), Single Cycle Kinetics; details: for NRAS/KRAS (ratio of KD value with respect to GDP-bound NRAS wild-type protein to KD value with respect to KRAS): SPR KD ratio NRAS/KRAS, class symbols
[3] = molecular target: GDP-bound KRAS wild-type protein (Homo sapiens, UniProt P01116); test: Binding to KRAS by surface plasmon resonance (SPR), Single Cycle Kinetics; details: GDP-bound KRAS wild-type protein, read-out: KRAS KD
[4] = molecular target: GDP-bound HRAS wild-type protein (Homo sapiens, UniProt P01112); test: Binding to HRAS by surface plasmon resonance (SPR), Single Cycle Kinetics; details: for HRAS/KRAS (ratio of KD value with respect to GDP-bound HRAS wild-type protein to KD value with respect to KRAS): SPR KD ratio HRAS/KRAS, class symbols
[5] = SPR, GDP-bound NRAS wild-type protein vs GDP-bound KRAS wild-type protein
[6] = SPR, GDP-bound HRAS wild-type protein vs GDP-bound KRAS wild-type protein
[7] = SPR Single Cycle Kinetics, 1:1 binding model

GDP-bound KRAS wild-type protein, sequence (P01116 whole entry): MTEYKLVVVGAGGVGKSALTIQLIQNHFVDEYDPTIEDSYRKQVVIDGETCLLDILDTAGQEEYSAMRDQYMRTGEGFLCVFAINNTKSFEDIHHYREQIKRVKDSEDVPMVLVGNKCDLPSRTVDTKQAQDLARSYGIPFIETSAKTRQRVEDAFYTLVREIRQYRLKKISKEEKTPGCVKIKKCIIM
GDP-bound NRAS wild-type protein, sequence (P01111 whole entry): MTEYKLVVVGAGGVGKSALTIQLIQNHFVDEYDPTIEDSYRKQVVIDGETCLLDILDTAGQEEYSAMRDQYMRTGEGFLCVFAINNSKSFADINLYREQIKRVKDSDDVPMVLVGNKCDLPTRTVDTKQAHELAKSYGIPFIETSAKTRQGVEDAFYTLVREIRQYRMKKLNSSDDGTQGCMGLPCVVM
GDP-bound HRAS wild-type protein, sequence (P01112 whole entry): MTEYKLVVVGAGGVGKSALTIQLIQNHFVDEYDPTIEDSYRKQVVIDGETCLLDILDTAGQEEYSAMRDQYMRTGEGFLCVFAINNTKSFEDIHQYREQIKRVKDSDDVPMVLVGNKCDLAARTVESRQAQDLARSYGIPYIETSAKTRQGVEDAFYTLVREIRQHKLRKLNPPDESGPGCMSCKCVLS

| SMILES | IC50 [1] | NRAS/KRAS (ratio of KD value for NRAS to KD value for KRAS) [2, 5] | Kd ([3]; SPR, Single Cycle Kinetics) | HRAS/KRAS (ratio of KD value for HRAS to KD value for KRAS) [4, 6] | NRAS/KRAS (ratio of KD value with respect to NRAS to KD value with respect to KRAS) [2, 5] | Kd [3, 7] | HRAS/KRAS (ratio of KD value with respect to HRAS to KD value with respect to KRAS) [4, 6] | NRAS/KRAS (ratio of KD value with respect to GDP-bound NRAS wild-type protein to KD value with respect to KRAS) [2] | HRAS/KRAS (ratio of KD value with respect to GDP-bound HRAS wild-type protein to KD value with respect to KRAS) [4] |
| --- | --- | --- | --- | --- | --- | --- | --- | --- | --- |
| CCO[C@@H]1C[C@H]2C(=O)NC3(CCC3)C(=O)N(C)[C@@H](C3CCCC3)C(=O)N(C)[C@H](C(=O)N(C)C)CC(=O)N(C)[C@@H](Cc3ccccc3C#N)C(=O)N[C@@H]([C@@H](C)CC)C(=O)N(C)CC(=O)N(C)[C@H]3CCCCCN(C3=O)[C@@H](Cc3ccc(F)cc3)C(=O)N(C)CC(=O)N[C@@H](CCc3cc(F)c(C(F)(F)F)c(F)c3)C(=O)N2C1 [PP1155] | 73.1 nM | B (a compound having 3 or more and less than 10 is denoted as B) | 0.15 nM | B (a compound having 3 or more and less than 10 is denoted as B) | – | – | – | – | – |
| CCCN1C(=O)CN(C)C(=O)CN(CC(F)F)C(=O)[C@H]([C@@H](C)CC)NC(=O)[C@H](CC(C)C)N(C)C(=O)C[C@@H](C(=O)N2CCOCC2)N(C)C(=O)[C@H](C2CCCC2)N(C)C(=O)C2(CCCC2)NC(=O)[C@@H]2CCCN2C(=O)[C@H](CCc2ccc(C(F)(F)F)c(Cl)c2)NC(=O)CN(C)C(=O)[C@@H]1Cc1ccc(C(F)(F)F)cc1 [PP0752] ([NMeL]I[X1][Sar][NPrPhe(4-CF3)][Sar][hPhe(3-Cl-4-CF3)]P[Ac5c][NMeGly(cPent)][NMeD]-Morpholide; lactam N-11) | 25.8 nM | – | – | – | B (a compound having 3 or more and less than 10 is denoted as B) | 0.54 nM | B (a compound having 3 or more and less than 10 is denoted as B) | – | – |
| CCO[C@H](C)[C@@H]1NC(=O)[C@H](CC(C)C)N(C)C(=O)C[C@@H](C(=O)N(C)CC)N(C)C(=O)[C@H](C2CCCC2)N(C)C(=O)C2(CC(C)(C)C2)NC(=O)[C@@H]2C[C@H](C)CN2C(=O)[C@H](CCc2ccc(C(F)(F)F)c(OC)c2)NC(=O)CN(C)C(=O)[C@H](Cc2ccc(C)cc2)N2CC/C=C\C[C@@H](C2=O)N(C)C(=O)CN(C)C1=O [PP2413] | 115 nM | A (a compound having 10 or more and less than 20 is denoted as A) | 0.25 nM | A (a compound having 10 or more and less than 20 is denoted as A) | – | – | – | – | – |
| CCOC[C@H]1C(=O)N[C@@H]([C@@H](C)CC)C(=O)N2CCC[C@H]2C(=O)N(C)[C@H]2C/C=C\CCN(C2=O)[C@@H](Cc2ccc(C)cc2)C(=O)N(C)CC(=O)N[C@@H](CCc2cc(F)c(C(F)(F)F)c(F)c2)C(=O)N2C[C@H](OCC)C[C@H]2C(=O)NC2(CC(C)(C)C2)C(=O)N(C)[C@@H](C2CCCC2)C(=O)N(C)[C@H](C(=O)N(C)CC)CC(=O)N1C [PP2428] | 4.8 nM | A (a compound having 10 or more and less than 20 is denoted as A) | 0.62 nM | A (a compound having 10 or more and less than 20 is denoted as A) | – | – | – | – | – |
| CCC[C@H]1C(=O)N[C@@H]([C@@H](C)CC)C(=O)N2CCC[C@H]2C(=O)N(C)[C@H]2C/C=C\CCN(C2=O)[C@@H](Cc2ccc(C(F)(F)F)cc2)C(=O)N(C)CC(=O)N[C@@H](CCc2ccc(C(F)(F)F)c(OC)c2)C(=O)N2C[C@@H](C)C[C@H]2C(=O)N(C)C2(CCC2)C(=O)N(C)[C@@H](C2CCCC2)C(=O)N(C)[C@H](C(=O)N(C)C)CC(=O)N1C [PP2362] | 4.8 nM | A (a compound having 10 or more and less than 20 is denoted as A) | 0.076 nM | A (a compound having 10 or more and less than 20 is denoted as A) | – | – | – | – | – |
| CCC[C@H]1C(=O)N[C@@H]([C@@H](C)CC)C(=O)N(C)CC(=O)N(C)[C@H]2C/C=C\CCN(C2=O)[C@@H](CC2CCC(F)(F)CC2)C(=O)N(C)CC(=O)N[C@@H](CCc2ccc(C(F)(F)F)c(OC)c2)C(=O)N2C[C@H](OCC)C[C@H]2C(=O)NC2(CC(C)(C)C2)C(=O)N(C)[C@@H](C(CC)CC)C(=O)N(C)[C@H](C(=O)N(C)C)CC(=O)N1C [PP2482] | 23.8 nM | A (a compound having 10 or more and less than 20 is denoted as A) | 0.93 nM | A (a compound having 10 or more and less than 20 is denoted as A) | – | – | – | – | – |
| CCC[C@H]1C(=O)N[C@@H](CC(C)C)C(=O)N2C[C@@H](OC)C[C@H]2C(=O)N(C)[C@H]2C/C=C\CCN(C2=O)[C@@H](Cc2ccc(C)cc2)C(=O)N(C)CC(=O)N[C@@H](CCc2ccc(C(F)(F)F)c(OC)c2)C(=O)N2C[C@H](OCC)C[C@H]2C(=O)NC2(CCC2)C(=O)N(C)[C@@H](C2CCCC2)C(=O)N(C)[C@H](C(=O)N(C)C)CC(=O)N1C [PP2548] | 1050 nM | – | – | – | – | 7.8 nM | – | A (a compound having 10 or more and less than 20 is denoted as A) | B (a compound having 3 or more and less than 10 is denoted as B) |
| CCO[C@@H]1C[C@H]2C(=O)NC3(CCC3)C(=O)N(C)[C@@H](C3CCCC3)C(=O)N(C)[C@H](C(=O)N(C)C)CC(=O)N(C)[C@@H](Cc3ccccc3C#N)C(=O)N[C@@H]([C@@H](C)CC)C(=O)N(C)CC(=O)N(C)[C@H]3CCCCCN(C3=O)[C@@H](Cc3ccc(C(F)(F)F)cc3)C(=O)N(C)CC(=O)N[C@@H](CCc3cc(F)c(C(F)(F)F)c(F)c3)C(=O)N2C1 [PP1171] | 118 nM | B (a compound having 3 or more and less than 10 is denoted as B) | 0.69 nM | B (a compound having 3 or more and less than 10 is denoted as B) | – | – | – | – | – |
| CCCN1C(=O)CN(C)C(=O)CN(CC)C(=O)[C@H]([C@@H](C)CC)NC(=O)[C@H](CC(C)C)N(C)C(=O)C[C@@H](C(=O)N2CCOCC2)N(C)C(=O)[C@H](C2CCCC2)N(C)C(=O)C2(CCC2)NC(=O)[C@@H]2CCCN2C(=O)[C@H](CCc2ccc(C(F)(F)F)c(Cl)c2)NC(=O)CN(C)C(=O)[C@@H]1Cc1ccc(C(F)(F)F)cc1 [PP0398] ([NMeL]I[NEtG][Sar][NPrPhe(4-CF3)][Sar][hPhe(3-Cl-4-CF3)]P[Ac4c][NMeGly(cPent)][NMeD]-Morpholide; lactam N-11) | 3.6 nM | B (a compound having 3 or more and less than 10 is denoted as B) | – | C (A compound having a KD ratio of 0.1 or more and less than 3 is denoted as C) | – | 0.48 nM | – | – | – |
| CCC(CC)[C@H]1C(=O)N(C)[C@H](C(=O)N(C)C)CC(=O)N(C)[C@@H](COC)C(=O)N[C@@H]([C@@H](C)CC)C(=O)N(C2CC2)CC(=O)N(C)[C@H]2C/C=C\CCN(C2=O)[C@@H](CC2CCC(F)(F)CC2)C(=O)N(C)CC(=O)N[C@@H](CCc2cc(F)c(C(F)(F)F)c(F)c2)C(=O)N2C[C@H](OC(C)C)C[C@H]2C(=O)NC2(CC(C)(C)C2)C(=O)N1C [PP2523] | 91.9 nM | – | – | – | – | 1.7 nM | – | A (a compound having 10 or more and less than 20 is denoted as A) | A (a compound having 10 or more and less than 20 is denoted as A) |
| CCCOC[C@H]1C(=O)N[C@@H]([C@@H](C)CC)C(=O)N(C)CC(=O)N(C)[C@H]2C/C=C\CCN(C2=O)[C@@H](CC2CCC(F)(F)CC2)C(=O)N(C)CC(=O)N[C@@H](CCc2ccc(C(F)(F)F)c(OC)c2)C(=O)N2C[C@H](OCC)C[C@H]2C(=O)NC2(CC(C)(C)C2)C(=O)N(C)[C@@H](C(CC)CC)C(=O)N(C)[C@H](C(=O)N(C)C)CC(=O)N1C [PP2464] | 66 nM | A (a compound having 10 or more and less than 20 is denoted as A) | 0.98 nM | A (a compound having 10 or more and less than 20 is denoted as A) | – | – | – | – | – |
| CCC[C@H]1C(=O)N[C@@H]([C@@H](C)CC)C(=O)N(C)CC(=O)N(C)[C@H]2C/C=C\CCN(C2=O)[C@@H](Cc2ccc(C(F)(F)F)cc2)C(=O)N(C)CC(=O)N[C@@H](CCc2ccc(C(F)(F)F)c(OC)c2)C(=O)N2C[C@H](OCC)C[C@H]2C(=O)NC2(CC(C)(C)C2)C(=O)N(C)[C@@H](CC(C)(C)C)C(=O)N(C)[C@H](C(=O)N(C)C)CC(=O)N1C [PP2734] | 3.1 nM | – | – | – | – | 0.1 nM | – | A (a compound having 10 or more and less than 20 is denoted as A) | B (a compound having 3 or more and less than 10 is denoted as B) |
